From patent publication US20240156971A1, “METHODS AND SORTILIN BINDING CONJUGATE COMPOUNDS FOR TARGETING CANCER STEM CELLS” (TRANSFERT PLUS, SOCIÉTÉ EN COMMANDITE, priority 2021, published 2024)
Square brackets hold non-standard residues; d marks the D form. Ends that are not written are not given here. Nle = CCCC[C@H](N)C(=O)O

Assays:
hBCSCs [1] = assay: Cell cycle analysis (G2/M) of hBCSCs; format: cell-based, human; conditions: 2 h with 4 μM docetaxel or 2 μM TH1902, then 22 h or 48 h
Protocol: (§1) Cell Cycle Analysis Following Treatment of hBCSC by Test Articles. hBCSCs (2.8×10^5 cells/well) and MDA-MB-231/luc cells (2.3×10^5 cells/well) were seeded in 6-well plates one day prior to treatment. To test the effects of Docetaxel and TH1902 on cell cycle phases, hBCSCs and MDA-MB-231/luc cells were treated for 2 hours in serum-free media with vehicle (DMSO), 4 μM docetaxel or 2 μM TH1902 (equimolar of docetaxel), rinsed with complete media and incubated in fresh complete media for 22 and 48 hours. For the experiments with the P-gp inhibitors, hBCSCs were first pre-treated for 30 minutes in serum-free media with vehicle (DMSO), or 10 μM cyclosporine A or PSC-833 (P-gp inhibitors). Next, cells were treated for 2 hours with 4 μM docetaxel or 2 μM TH1902 in the continued presence or absence of the P-gp inhibitors before being rinsed and incubated in fresh complete media in the continued presence or absence of the P-gp inhibitors. Cells were then incubated for 22 and 48 hours. In both assays, following the incubation, cells were detached with trypsin, fixed with ice-cold 70% EtOH and kept overnight at 4° C. Cells were washed once with PBS, after which they were stained for 30 minutes at room temperature with FxCycle™ PI/RNase Staining Solution (Thermo Scientific, Waltham, MA; #F10797). Cells were finally subjected to cell cycle analysis using a BD Accuri™ C6 flow cytometer.

MDA-MB-231/luc cells = assay: Cell cycle analysis (G2/M) of MDA-MB-231/luc cells; format: cell-based, human; conditions: MDA-MB-231 cells
Protocol: as §1

hBCSCs [2] = assay: Cell cycle analysis (G2/M) of hBCSCs with or without P-gp inhibitors; format: cell-based, human
Protocol: as §1

[3] = system: MDA-MB-231/luciferase tumor xenografts; assay: Cancer relapse in MDA-MB-231/luciferase xenograft mouse model of TNBC; format: in vivo, mice; conditions: treated at day 0, 7, 14 and 21; for cancer relapse at later time points (day 74): assessed up to day 74
Protocol: It was then assessed whether treatment with docetaxel or TH1902 could prevent cancer relapse using the MDA-MB-231/luciferase xenograft mouse model of TNBC. The MDA-MB-231 tumor cell has been reported to have cells with cancer stem cell (CSC)-like properties (Sleeboom et al., Int J Mol Sci. 2018 October; 19(10): 3047; Ghanbari et al., Int. J. Morphol., 34(4):1197-1202, 2016). Mice with MDA-MB-231/luciferase tumor xenografts were treated a day 0, 7, 14 and 21 with either vehicle (control), Docetaxel or TH1902 and tumor growth was assessed up to day 74.

hOvCSC xenografts = assay: Growth of hOvCSC xenografts in mice; format: in vivo; conditions: weekly i.v.; TH1902 at doses equivalent to 1, 1.25 or 1.5 the MTD of docetaxel; docetaxel 15 mg/kg (MTD)
Description: In vivo Assessment of Docetaxel and TH1902 Anti-Tumor Efficacy. Tumor xenografts were established by subcutaneous inoculation of 10^3 hBCSC cells, hOvCSC and hPCSC resuspended in […] of HBSS containing 50% Matrigel™, into the right flank of NCG triple immunodeficient female mice (Charles River, Saint-Constant QC) under light isoflurane anesthesia. Three days following implantation of either hBCSC or hOvCSCS, mice commenced receiving weekly treatment by intravenous bolus injections of vehicle (10% polysorbate-80, 5% dextrose, 0.04% formic acid pH 4.3), docetaxel (15 mg/kg (the MTD for this agent) or 3.75 mg/kg (¼ MTD for this agent), dissolved in 5% dextrose, 3.3% ethanol, […]) dissolved in vehicle. […] Tumor growth was measured using two-dimensional measurements taken with an electronic caliper, and tumor volume was calculated according to the following formula: tumor volume (mm^3)=π/6×length×width^2. Animal weights were measured three times per week with a precision of 10 mg.

ovarian hOCSC xenografts = assay: hOCSC xenografts treated with single agents or combined with carboplatin; format: in vivo, mice; conditions: for inhibition of tumor growth, single agent: docetaxel 10 mg/kg, TH1902 23 mg/kg, paclitaxel 10 mg/kg, carboplatin 40 mg/kg, day 18
Protocol: Mice bearing ovarian hOCSC xenografts were treated with vehicle, docetaxel, paclitaxel, TH1902 or carboplatin, and other groups of mice were administered carboplatin in combination with either docetaxel, paclitaxel or TH1902. To minimize the risk of side effects resulting from combining treatments, the dosages used for each drug were reduced to the following: docetaxel 10 mg/kg; TH1902 23 mg/kg (equivalent to the docetaxel dosage); paclitaxel 10 mg/kg; carboplatin 40 mg/kg (unchanged).

Compound	G2/M cell cycle arrest (hBCSCs [1])	G2/M cell cycle arrest at 22 h (MDA-MB-231/luc cells)	G2/M cell cycle arrest in the presence of CsA (hBCSCs [2]; 10 μM CsA, 4 μM docetaxel or 2 μM TH1902)	G2/M cell cycle arrest in the presence of PCC-831 (hBCSCs [2]; 10 μM inhibitor, 4 μM docetaxel or 2 μM TH1902)	proportion of cells in G2/M phase (hBCSCs [2]; no efflux inhibitor, 4 μM docetaxel or 2 μM TH1902, FIG. 6C-D)	tumor growth during and shortly after administration [3]	cancer relapse at later time points (day 74) [3]	growth of tumors originating from ovarian CSCs (hOvCSC xenografts)	inhibition of tumor growth, single agent (ovarian hOCSC xenografts)	inhibition of tumor growth, combined with carboplatin (ovarian hOCSC xenografts; plus carboplatin 40 mg/kg intraperitoneal, vs the agent alone)
Acetyl-GVRAK(docetaxel)AGVRN(Nle)FK(docetaxel)SESY (Ac-GVRAK(docetaxel)AGVRN[Nle]FK(docetaxel)SESY) [TH1902]	significant increase in G2/M cell cycle arrest	some G2/M cell cycle arrest being detected at 22 h	no effect	no effect	strong increase in the proportion of cells in G2/M phase	reduction in tumor growth	No residual tumor could be detected	significant inhibition of the growth of tumors	much greater than that of either taxanes	slightly increased
CC(=O)O[C@@]12CO[C@@H]1C[C@H](O)[C@@]1(C)C(=O)[C@H](O)C3=C(C)[C@@H](OC(=O)[C@H](O)[C@@H](NC(=O)OC(C)(C)C)c4ccccc4)C[C@@](O)([C@@H](OC(=O)c4ccccc4)[C@H]21)C3(C)C [docetaxel, reference compound]	not	not	–	–	–	reduction in tumor growth	tumor resurgence was observed	no significant reduction of tumor growth	clearly inferior to that of TH1902	–
